Non-standard residues stand in square brackets, D forms with d. Residues, ends and D or L forms follow the SMILES beside them. Groups on a side chain read outwards from the residue. *: point of attachment. Phe(4-Br) = N[C@@H](Cc1ccc(Br)cc1)C(=O)O; Phe(4-Cl) = N[C@@H](Cc1ccc(Cl)cc1)C(=O)O; Phe(4-F) = N[C@@H](Cc1ccc(F)cc1)C(=O)O; 2Nal = N[C@@H](Cc1ccc2ccccc2c1)C(=O)O; NEt2 = CCN(CC)* Some results are limits rather than exact numbers.

By IC50 is commonly meant the point on the concentration scale where inhibition reaches its midpoint. A word on the inhibition: it is the drop in the measured response relative to a control, in per cent. A low value points to little suppression.

Assay [1] deals with HeLa. Kind of assay: Antitumor activity against human HeLa cells. It is filed as functional, cell-based.
The test system of assay [2] is MDA-MB-231. Description: Antitumor activity against human MDA-MB-231 cells. The format is functional, cell-based.
Assay [3] is described as follows: Inhibition of IMPDH (unknown origin). More on the design: species or system Homo sapiens.
The target in assay [4] is Acetylcholinesterase (Homo sapiens, UniProt P22303). Kind of assay: Inhibition of AchE (unknown origin).
Acetylcholinesterase, sequence (P22303 whole entry): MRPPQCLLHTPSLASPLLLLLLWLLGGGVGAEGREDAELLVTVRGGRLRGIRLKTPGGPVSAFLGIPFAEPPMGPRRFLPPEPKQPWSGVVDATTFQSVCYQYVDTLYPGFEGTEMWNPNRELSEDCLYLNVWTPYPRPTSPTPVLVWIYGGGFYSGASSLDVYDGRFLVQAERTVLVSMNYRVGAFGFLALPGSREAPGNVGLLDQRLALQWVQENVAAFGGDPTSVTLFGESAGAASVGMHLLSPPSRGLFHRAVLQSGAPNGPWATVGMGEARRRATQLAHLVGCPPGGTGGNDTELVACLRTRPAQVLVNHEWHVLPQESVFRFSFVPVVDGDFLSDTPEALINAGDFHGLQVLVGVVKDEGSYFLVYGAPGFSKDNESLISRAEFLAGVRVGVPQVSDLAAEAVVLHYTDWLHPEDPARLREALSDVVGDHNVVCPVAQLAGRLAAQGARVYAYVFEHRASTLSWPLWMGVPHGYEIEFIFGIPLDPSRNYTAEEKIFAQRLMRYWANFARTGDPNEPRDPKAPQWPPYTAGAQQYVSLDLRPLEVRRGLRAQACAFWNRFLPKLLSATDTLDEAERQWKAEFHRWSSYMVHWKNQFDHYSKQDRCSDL
In assay [5] the test system is Proteasome. Description: Inhibition of proteasome (unknown origin). The format is subcellular, Homo sapiens.
Assay [6] concerns the target T1, Monoglyceride lipase (Homo sapiens, UniProt Q99685).
T1 sequence (Q99685 whole entry): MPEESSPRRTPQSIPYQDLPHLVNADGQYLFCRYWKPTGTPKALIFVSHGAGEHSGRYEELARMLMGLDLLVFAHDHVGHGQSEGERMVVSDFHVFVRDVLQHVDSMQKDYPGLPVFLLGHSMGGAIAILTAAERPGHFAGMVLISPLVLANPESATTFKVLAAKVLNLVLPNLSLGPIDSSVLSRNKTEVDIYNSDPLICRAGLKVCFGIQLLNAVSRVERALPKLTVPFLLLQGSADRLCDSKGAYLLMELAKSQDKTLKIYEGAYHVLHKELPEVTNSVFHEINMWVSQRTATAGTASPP
Description: Inhibition of MAGL (unknown origin).

In assay [7] the target is Cathepsin B (Homo sapiens, UniProt P07858). Description: Inhibition of cathepsin B (unknown origin).
Assay [8] has as its target T2, Tyrosine-protein phosphatase non-receptor type 11 (Homo sapiens) (UniProt Q06124).
T2 sequence (whole entry): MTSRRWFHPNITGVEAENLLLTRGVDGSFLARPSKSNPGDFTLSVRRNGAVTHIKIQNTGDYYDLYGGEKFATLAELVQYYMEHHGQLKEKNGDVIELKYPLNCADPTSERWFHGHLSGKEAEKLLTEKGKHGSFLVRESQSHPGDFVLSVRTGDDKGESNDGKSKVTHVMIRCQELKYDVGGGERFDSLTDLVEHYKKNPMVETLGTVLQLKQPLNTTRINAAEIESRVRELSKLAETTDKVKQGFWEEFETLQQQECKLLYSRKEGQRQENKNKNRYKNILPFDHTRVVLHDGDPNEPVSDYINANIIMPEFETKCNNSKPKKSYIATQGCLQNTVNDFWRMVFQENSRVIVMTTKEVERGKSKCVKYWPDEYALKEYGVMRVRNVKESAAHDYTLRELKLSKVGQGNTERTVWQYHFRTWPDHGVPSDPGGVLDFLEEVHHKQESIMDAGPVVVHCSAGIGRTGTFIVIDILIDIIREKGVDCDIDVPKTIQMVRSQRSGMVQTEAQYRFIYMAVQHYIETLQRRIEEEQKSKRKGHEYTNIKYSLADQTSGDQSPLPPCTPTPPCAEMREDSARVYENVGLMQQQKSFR
Description: Inhibition of SHP2 (unknown origin) at 100 uM.

Assay [9] deals with T2, Tyrosine-protein phosphatase non-receptor type 11 (Homo sapiens). Description: Inhibition of SHP2 (unknown origin) at 50 uM.
For assay [10] the target is unchanged. Description: Inhibition of SHP2 (unknown origin) at 20 uM.
Assay [11] has the same target. Description: Inhibition of SHP2 (unknown origin) at 25 uM.
For assay [12] the target is unchanged. Kind of assay: Inhibition of SHP2 (unknown origin) at 10 uM.
Assay [13] shares this target. Description: Inhibition of SHP2 (unknown origin) at 5 uM.
Assay [14] concerns the target T3, Tyrosine-protein phosphatase non-receptor type 11 (Homo sapiens, UniProt Q06124).
T3 sequence (Q06124 whole entry): T2 sequence (whole entry)
Kind of assay: Inhibition of SHP2 (unknown origin).

With `CCN(CC)C(=O)[C@H](Cc1ccc(F)cc1)NC(=O)[C@H](CC(C)C)NC(=O)[C@@H](NC(=O)[C@@H](N)COC(=O)[C@@H]1CCCN1C(C)=O)C(C)C` (H-S([Pro-Ac])VL[Phe(4-F)]-NEt2), the IC50 was over 50 µg/mL in assay [1]; over 50 µg/mL in assay [2]; over 100 µg/mL in [3]; over 148 µM in [4]; over 100 µg/mL in assay [5]; over 148 µM in assay [6]. Also, the figures for the IC50 in assay [7] and in assay [14] were over 148 µM and 31.9 µM, respectively. Further, the inhibition in assay [8] stood at 95%; in assay [9] it was 81%; in [10], 44%; in assay [11], 47%; in [12] it was 23%; in assay [13], 18%.

Turning to `CCN(CC)C(=O)[C@H](Cc1ccc(Br)cc1)NC(=O)[C@H](CC(C)C)NC(=O)[C@@H](NC(=O)[C@@H](N)COC(=O)[C@H](CC(C)C)NC(C)=O)C(C)C` (H-S([Leu-Ac])VL[Phe(4-Br)]-NEt2), the IC50 in assay [1] is over 50 µg/mL; in assay [2], over 50 µg/mL; in assay [3], over 100 µg/mL; in assay [4], over 133 µM; in [5], over 100 µg/mL; in assay [6], over 133 µM. Moreover, the IC50 in assay [7] was over 133 µM; in assay [14], 33.2 µM. For the same molecule, the inhibition in assay [8] stood at 96%; in assay [9] it was 78%; in [10], 46%; in assay [11], 49%; in [12] it was 26%; in [13], 21%.

In the case of `CCN(CC)C(=O)[C@H](Cc1ccc(Br)cc1)NC(=O)[C@H](CC(C)C)NC(=O)[C@@H](NC(=O)[C@@H](N)COC(=O)[C@@H]1CCCN1C(C)=O)C(C)C` (H-S([Pro-Ac])VL[Phe(4-Br)]-NEt2), the IC50 in [1] is over 50 µg/mL; in assay [2] it was over 50 µg/mL; in [3], over 100 µg/mL; in assay [4] it was over 136 µM; in [5], over 100 µg/mL; in [6] it was over 136 µM. In assay [7], the IC50 was over 136 µM. Further, the inhibition in assay [8] came to 86%; in [9], 51%; in assay [10] it was 20%.

Regarding `CCN(CC)C(=O)[C@H](Cc1ccc2ccccc2c1)NC(=O)[C@H](CC(C)C)NC(=O)[C@@H](NC(=O)[C@@H](N)COC(=O)[C@@H]1CCCN1C(C)=O)C(C)C` (H-S([Pro-Ac])VL[2Nal]-NEt2), the half-inhibitory concentration (IC50) in [1] was over 50 µg/mL; in assay [2] it was over 50 µg/mL; in assay [3], over 100 µg/mL; in [4] it was over 141 µM; in assay [5], over 100 µg/mL; in [6], over 141 µM. Also, the IC50 in assay [7] is over 141 µM; in assay [14] it was 12.5 µM. The inhibition in [8] came out at 94%; in assay [9], 76%; in assay [10], 58%; in assay [11], 61%; in [12], 47%; in assay [13], 33%.

For the molecule `CCN(CC)C(=O)[C@H](Cc1ccc(OC)cc1)NC(=O)[C@H](CC(C)C)NC(=O)[C@@H](NC(=O)[C@@H](N)COC(=O)[C@H](CC(C)C)NC(C)=O)C(C)C` (H-S([Leu-Ac])VLY(Me)-NEt2), the IC50 in [1] was over 50 µg/mL; in [2], over 50 µg/mL; in [3], over 100 µg/mL; in assay [4], over 142 µM; in assay [5] it was over 100 µg/mL; in assay [6] it was over 142 µM. This molecule gave a 50% inhibitory concentration (IC50) in assay [7] of over 142 µM. Further, the values for the inhibition in assay [8], in assay [9] and in [10] were 92%, 52% and 34%, respectively.

Regarding `CCN(CC)C(=O)[C@H](Cc1ccc2ccccc2c1)NC(=O)[C@H](CC(C)C)NC(=O)[C@@H](NC(=O)[C@@H](N)COC(=O)[C@H](CC(C)C)NC(C)=O)C(C)C` (H-S([Leu-Ac])VL[2Nal]-NEt2), the IC50 in [1] was over 50 µg/mL; in assay [2], over 50 µg/mL; in assay [3] it was over 100 µg/mL; in assay [4], over 138 µM; in assay [5] it was over 100 µg/mL; in [6], over 138 µM. The molecule also came in with a 50% inhibitory concentration (IC50) in assay [7] of over 138 µM. Besides, the figures for the inhibition in [8], in assay [9] and in assay [10] were 93%, 46% and 27%, respectively.

Regarding `CCN(CC)C(=O)[C@H](Cc1ccccc1)NC(=O)[C@H](CC(C)C)NC(=O)[C@@H](NC(=O)[C@@H](N)COC(=O)[C@@H]1CCCN1C(C)=O)C(C)C` (H-S([Pro-Ac])VLF-NEt2), the IC50 in assay [1] was over 50 µg/mL; in [2] it was over 50 µg/mL; in [3], over 100 µg/mL; in assay [4] it was over 152 µM; in assay [5], over 100 µg/mL; in assay [6], over 152 µM. Further, the concentration for half-maximal inhibition (IC50) in assay [7] is over 152 µM. The inhibition in assay [8] amounted to 95%; in assay [9], 54%; in assay [10], 29%.

For `CCN(CC)C(=O)[C@H](Cc1ccc(OC)cc1)NC(=O)[C@H](CC(C)C)NC(=O)[C@@H](NC(=O)[C@@H](N)COC(=O)[C@@H]1CCCN1C(C)=O)C(C)C` (H-S([Pro-Ac])VLY(Me)-NEt2), the IC50 is over 50 µg/mL in [1]; over 50 µg/mL in assay [2]; over 100 µg/mL in assay [3]; over 145 µM in [4]; over 100 µg/mL in assay [5]; over 145 µM in assay [6]. The molecule further came in with a concentration for half-maximal inhibition (IC50) in [7] of over 145 µM. For the same molecule, the figures for the inhibition in [8], in [9] and in assay [10] were 87%, 53% and 35%, respectively.

For `CCN(CC)C(=O)[C@H](Cc1ccc(Cl)cc1)NC(=O)[C@H](CC(C)C)NC(=O)[C@@H](NC(=O)[C@@H](N)COC(=O)[C@@H]1CCCN1C(C)=O)C(C)C` (H-S([Pro-Ac])VL[Phe(4-Cl)]-NEt2), the IC50 in assay [1] is over 50 µg/mL; in assay [2], over 50 µg/mL; in assay [3] it was over 100 µg/mL; in [4], over 144 µM; in [5], over 100 µg/mL; in assay [6] it was over 144 µM. The same molecule showed an IC50 in [7] of over 144 µM. Besides, the inhibition in assay [8] worked out at 88%; in [9], 46%; in assay [10], 37%.

Take `CCN(CC)C(=O)[C@H](Cc1ccc(Cl)cc1)NC(=O)[C@H](CC(C)C)NC(=O)[C@@H](NC(=O)[C@@H](N)COC(=O)[C@H](CC(C)C)NC(C)=O)C(C)C` (H-S([Leu-Ac])VL[Phe(4-Cl)]-NEt2): the IC50 is over 50 µg/mL in assay [1]; over 50 µg/mL in assay [2]; over 100 µg/mL in assay [3]; over 141 µM in assay [4]; over 100 µg/mL in assay [5]; over 141 µM in assay [6]. In assay [7], this molecule registered an IC50 of over 141 µM. Moreover, the inhibition in assay [8] was 89%; in assay [9], 49%; in [10], 21%.

Regarding `CCN(CC)C(=O)[C@H](Cc1ccc(F)cc1)NC(=O)[C@H](CC(C)C)NC(=O)[C@@H](NC(=O)[C@@H](N)COC(=O)[C@H](CC(C)C)NC(C)=O)C(C)C` (H-S([Leu-Ac])VL[Phe(4-F)]-NEt2), the 50% inhibitory concentration (IC50) was over 50 µg/mL in assay [1]; over 50 µg/mL in [2]; over 100 µg/mL in [3]; over 144 µM in [4]; over 100 µg/mL in assay [5]; over 144 µM in assay [6]. For the same molecule, in assay [7], the IC50 was over 144 µM. For the same molecule, the results for the inhibition in assay [8], in assay [9] and in assay [10] were 97%, 55% and 32%, respectively.

As to `CCN(CC)C(=O)[C@H](Cc1ccccc1)NC(=O)[C@H](CC(C)C)NC(=O)[C@@H](NC(=O)[C@@H](N)COC(=O)[C@H](CC(C)C)NC(C)=O)C(C)C` (H-S([Leu-Ac])VLF-NEt2), the IC50 in [1] is over 50 µg/mL; in [2], over 50 µg/mL; in assay [3], over 100 µg/mL; in assay [4] it was over 148 µM; in assay [5], over 100 µg/mL; in assay [6] it was over 148 µM. The IC50 in assay [7] was over 148 µM; in assay [14], 36.8 µM. Further, the inhibition was 94% in [8]; 83% in assay [9]; 40% in assay [10]; 46% in assay [11]; 31% in assay [12]; 12% in [13].
